This is an account of results in PubChem BioAssay (NCI).

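1) Cells in 96-well plates. 2) Compound, 48 h, 5 concentrations. 3) Linear interpolation between surrounding doses. 4) Unreached endpoint = highest concentration. GI50 is the concentration that inhibits growth by half. TGI marks complete inhibition of growth.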

Holding throughout (assay): DTP human tumour cell line panel, 48 h
Assay [1] concerns SF-268 CNS.
The test system of assay [2] is NCI-H226 lung.
The subject of assay [3] is A498 renal.
For assay [4], the system named is HCT-116 colon.
Assay [5] concerns SNB-75 CNS.
Assay [6] has as its system SK-OV-3 ovarian.
Assay [7] has as its system RXF 393 renal.
The test system of assay [8] is OVCAR-4 ovarian.

Consider `O=C(CC(=O)C1CCOC1=O)C(=O)Nc1cccc(Cl)c1` (configuration not stated), for which the concentration for total growth inhibition (TGI) in assay [1], in assay [2], in assay [3], in assay [4], in assay [5] and in assay [6] was above 100 µM throughout. For the same compound, the total growth inhibition concentration (TGI) in assay [7] and in assay [8] was above 100 µM each time.

Take `CCOC(=O)NC(=O)c1cn(C(CC)COC(=O)NCCCCCCNC(=O)OCC(CC)n2cc(C(=O)NC(=O)OCC)c(=O)[nH]c2=O)c(=O)[nH]c1=O` (configuration not stated): the TGI in assay [1], in assay [2], in assay [3], in assay [4], in assay [5] and in assay [6] was above 100 µM each time. Moreover, the TGI in assay [7] and in assay [8] was above 100 µM each time.

In the case of `CC(C(=O)c1ccc(Cl)cc1)/C(=N/NC(=O)NN)C(=O)Nc1cccc(C(F)(F)F)c1` (configuration not stated), the concentration for total growth inhibition (TGI) in assay [1], in assay [2], in assay [3], in assay [4], in assay [5] and in assay [6] was above 100 µM in each case. In addition, the TGI in assay [7] and in assay [8] was above 100 µM throughout.

Consider `O=C(N/C(=C\c1ccc([N+](=O)[O-])cc1)c1nc2ccccc2[nH]1)c1ccccc1`, for which the TGI in assay [1], in assay [3], in assay [4], in assay [7] and in assay [8] was above 100 µM in each case.

As to `CC(C)CCC[C@@H](C)C1CCC2[C@@H]3CC=C4C[C@@H](C(=O)NCCN(C)C)CC[C@]4(C)C3CC[C@@]21C` (some centres not stated), the total growth inhibition concentration (TGI) in assay [1] is above 100 µM; in assay [2] it was 51.4 µM; in assay [3], above 100 µM; in assay [5], above 100 µM; in assay [6], above 100 µM; in assay [7], above 100 µM. This compound also returned a concentration for total growth inhibition (TGI) in assay [8] above 100 µM.

Regarding `CC(C)(C)c1ccc2c(c1)S(=O)(=O)Nc1ccc(Cl)cc1NS(=O)(=O)c1cc(C(C)(C)C)ccc1OCCOCCOCCO2`, the TGI in assay [1] is above 100 µM; in assay [2], above 100 µM; in assay [3], above 100 µM; in assay [4], above 100 µM; in assay [5], 59 µM; in assay [6], 86.3 µM. The figures for the concentration for total growth inhibition (TGI) in assay [7] and in assay [8] were 79.1 µM and 28 µM, respectively.

Turning to `CCOC(=O)NC(=O)c1cn(C2CCCCC2)c(=O)[nH]c1=O`, the total growth inhibition concentration (TGI) in assay [1], in assay [2], in assay [3], in assay [4], in assay [6] and in assay [8] was above 100 µM in each case.

With `O=[N+]([O-])c1cccc(C2=NOC(C3CCCCC3)C2)c1` (configuration not stated), the TGI in assay [1], in assay [2], in assay [3], in assay [4], in assay [5] and in assay [6] was above 100 µM in each case. Moreover, the TGI in assay [8] was above 100 µM.

For `CCOP(=O)(OCC)C(C(=O)OC)C(=O)C(=O)Nc1ccc(Cl)cc1Cl` (configuration not stated), the TGI in assay [1], in assay [2], in assay [3], in assay [4], in assay [5] and in assay [6] was above 100 µM throughout. Further, the concentration for total growth inhibition (TGI) in assay [7] and in assay [8] was above 100 µM in each case.

With `Nc1nc(-c2ccc(Cl)c([N+](=O)[O-])c2)cs1`, the total growth inhibition concentration (TGI) in assay [1] is above 100 µM; in assay [3], 92.1 µM; in assay [4], above 100 µM; in assay [5], 92.7 µM; in assay [6], above 100 µM; in assay [7] it was 90.1 µM. Further, in assay [8], the TGI was above 100 µM.

Take `CCOCN1COCN(C)C1=O`: the TGI in assay [1], in assay [2], in assay [3], in assay [4], in assay [5] and in assay [6] was above 100 µM in each case. In assay [8], this compound returned a total growth inhibition concentration (TGI) above 100 µM.

Take `N#CCCN1C/C(=C/c2ccc(Br)cc2)C(=O)/C(=C/c2ccc(Br)cc2)C1`: the concentration for 50% growth inhibition (GI50) is 0.181 µM in assay [4]; 4.35 µM in assay [5]; 2.93 µM in assay [6]; 1.55 µM in assay [7]; 2.69 µM in assay [8]. Also, the TGI was 0.345 µM in assay [4]; 31.4 µM in assay [5]; 8.1 µM in assay [6]; 3.04 µM in assay [7]; above 100 µM in assay [8].

Regarding `NC(=O)C(=O)CC(=O)c1ccccc1NC1=CC(=O)C(=O)c2ccccc21`, the total growth inhibition concentration (TGI) in assay [1] was above 85.7 µM; in assay [2], above 100 µM; in assay [3], above 100 µM; in assay [4], above 100 µM; in assay [5], above 100 µM; in assay [6], above 100 µM. Further, the total growth inhibition concentration (TGI) in assay [7] and in assay [8] was above 100 µM in each case.
